Data: patent US10058550B2, “Methods of treating heart failure” (priority 2015, dated 2018)

Molecular target: human APJ receptor (Homo sapiens (Human), UniProt P35414)
Test: biochemical
Type: biochemical
Details: read-out: Activity hAPJ SPA EC50 IP
In short: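 Agonist-stimulated [35S]GTPγS (0.2 nM) binding was read by SPA after 90 min at room temperature. Buffer: 20 mM HEPES pH 7.5 with 5 mM MgCl2, 200 mM NaCl, 3 μM GDP, 0.1% BSA; membranes were from a stable human APJ CHO line. EC50 values are averages of independent runs, fitted by non-linear regression.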

Chain of human APJ receptor (P35414 whole entry): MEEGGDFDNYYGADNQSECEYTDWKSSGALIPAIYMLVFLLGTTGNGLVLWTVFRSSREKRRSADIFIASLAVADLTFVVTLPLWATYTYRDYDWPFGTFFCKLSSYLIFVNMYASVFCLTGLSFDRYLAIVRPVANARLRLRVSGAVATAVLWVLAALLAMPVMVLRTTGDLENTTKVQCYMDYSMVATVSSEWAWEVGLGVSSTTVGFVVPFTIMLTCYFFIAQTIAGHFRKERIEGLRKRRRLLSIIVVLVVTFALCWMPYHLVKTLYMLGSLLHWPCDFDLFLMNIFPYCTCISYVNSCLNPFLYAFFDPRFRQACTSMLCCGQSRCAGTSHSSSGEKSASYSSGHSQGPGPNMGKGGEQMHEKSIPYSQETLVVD

Structure (SMILES)	EC50 [nM]
CCO[C@H](c1ncc(F)cn1)[C@H](C)S(=O)(=O)Nc1nnc(-c2cccc(OC)n2)n1-c1ccccc1 [Example 50.0, (1R,2S)-1-ethoxy-1-(5-fluoro-2-pyrimidinyl)-N-(5-(6-methoxy-2-pyridinyl)-4-phenyl-4H-1,2,4-triazol-3-yl)-2-propanesulfonamide]	9.3
CCO[C@H](c1ncc(F)cn1)[C@H](C)S(=O)(=O)Nc1nnc(-c2cccnc2)n1-c1c(OC)cccc1OC [Example 51.0, (1R,2S)-N-(4-(2,6-dimethoxyphenyl)-5-(3-pyridinyl)-4H-1,2,4-triazol-3-yl)-1-ethoxy-1-(5-fluoro-2-pyrimidinyl)-2-propanesulfonamide]	0.71
COc1cccc(-c2nnc(NS(=O)(=O)[C@@H](C)[C@H](OC)c3ncc(C)cn3)n2-c2ccc3ccccc3c2)n1 [Example 53.0, (1R,2S)-1-methoxy-N-(5-(6-methoxy-2-pyridinyl)-4-(2-naphthalenyl)-4H-1,2,4-triazol-3-yl)-1-(5-methyl-2-pyrimidinyl)-2-propanesulfonamide]	53
COC(=O)c1cccc(-n2c(NS(=O)(=O)[C@@H](C)[C@H](OC)c3ncc(C)cn3)nnc2-c2cccc(OC)n2)c1 [Example 54.0, methyl 3-(3-((((1S,2R)-2-methoxy-1-methyl-2-(5-methyl-2-pyrimidinyl)ethyl)sulfonyl)amino)-5-(6-methoxy-2-pyridinyl)-4H-1,2,4-triazol-4-yl)benzoate]	12
COc1cccc(-c2nnc(NS(=O)(=O)[C@@H](C)[C@H](OC)c3ncc(C)cn3)n2-c2cccc(C#N)c2)n1 [Example 56.0, (1R,2S)-N-(4-(3-cyanophenyl)-5-(6-methoxy-2-pyridinyl)-4H-1,2,4-triazol-3-yl)-1-methoxy-1-(5-methyl-2-pyrimidinyl)-2-propanesulfonamide]	31
COc1cnc([C@@H](OC)[C@H](C)S(=O)(=O)Nc2nnc(-c3cncc(C)c3)n2-c2c(OC)cccc2OC)nc1 [Example 57.0, (1R,2S)-N-(4-(2,6-dimethoxyphenyl)-5-(5-methyl-3-pyridinyl)-4H-1,2,4-triazol-3-yl)-1-methoxy-1-(5-methoxy-2-pyrimidinyl)-2-propanesulfonamide]	0.55
COc1cnc([C@@H](OC)[C@H](C)S(=O)(=O)Nc2nnc(-c3cccnc3)n2-c2c(OC)cccc2OC)nc1 [Example 58.0, (1R,2S)-N-(4-(2,6-dimethoxyphenyl)-5-(3-pyridinyl)-4H-1,2,4-triazol-3-yl)-1-methoxy-1-(5-methoxy-2-pyrimidinyl)-2-propanesulfonamide]	0.5
COc1cnc([C@@H](OC)[C@H](C)S(=O)(=O)Nc2nnc(-c3cncc(C)c3)n2-c2ccccc2)nc1 [Example 59.0, (1R,2S)-1-methoxy-1-(5-methoxy-2-pyrimidinyl)-N-(5-(5-methyl-3-pyridinyl)-4-phenyl-4H-1,2,4-triazol-3-yl)-2-propanesulfonamide]	26
COc1cccc(-c2nnc(NS(=O)(=O)[C@@H](C)[C@H](OC)c3ncc(C)cn3)n2-c2cccc(Br)c2)n1 [Example 60.0, (1R,2S)-N-(4-(3-bromophenyl)-5-(6-methoxy-2-pyridinyl)-4H-1,2,4-triazol-3-yl)-1-methoxy-1-(5-methyl-2-pyrimidinyl)-2-propanesulfonamide]	12
COc1cccc(-c2nnc(NS(=O)(=O)[C@@H](C)[C@H](OC)c3ncc(C)cn3)n2-c2cccc(C)c2)n1 [Example 62.0, (1R,2S)-1-methoxy-N-(5-(6-methoxy-2-pyridinyl)-4-(3-methylphenyl)-4H-1,2,4-triazol-3-yl)-1-(5-methyl-2-pyrimidinyl)-2-propanesulfonamide]	6
COc1cccc(-c2nnc(NS(=O)(=O)[C@@H](C)[C@H](OC)c3ncc(C)cn3)n2-c2ccc(F)c(C(F)(F)F)c2)n1 [Example 63.0, (1R,2S)-N-(4-(4-fluoro-3-(trifluoromethyl)phenyl)-5-(6-methoxy-2-pyridinyl)-4H-1,2,4-triazol-3-yl)-1-methoxy-1-(5-methyl-2-pyrimidinyl)-2-propanesulfonamide]	350
COc1cccc(-n2c(NS(=O)(=O)[C@@H](C)[C@H](OC)c3ncc(C)cn3)nnc2-c2cccc(OC)n2)c1 [Example 64.0, (1R,2S)-1-methoxy-N-(4-(3-methoxyphenyl)-5-(6-methoxy-2-pyridinyl)-4H-1,2,4-triazol-3-yl)-1-(5-methyl-2-pyrimidinyl)-2-propanesulfonamide]	10
COc1cccc(-c2nnc(NS(=O)(=O)[C@@H](C)[C@H](OC)c3ncc(C)cn3)n2-c2ccc(F)cc2)n1 [Example 65.0, (1R,2S)-N-(4-(4-fluorophenyl)-5-(6-methoxy-2-pyridinyl)-4H-1,2,4-triazol-3-yl)-1-methoxy-1-(5-methyl-2-pyrimidinyl)-2-propanesulfonamide]	180
COc1cccc(-c2nnc(NS(=O)(=O)[C@@H](C)[C@H](OC)c3ncc(C)cn3)n2-c2cccc(Cl)c2)n1 [Example 66.0, (1R,2S)-N-(4-(3-chlorophenyl)-5-(6-methoxy-2-pyridinyl)-4H-1,2,4-triazol-3-yl)-1-methoxy-1-(5-methyl-2-pyrimidinyl)-2-propanesulfonamide]	24
COc1cccc(-c2nnc(NS(=O)(=O)[C@@H](C)[C@H](OC)c3ncc(C)cn3)n2-c2cc(Cl)cc(Cl)c2)n1 [Example 68.0, (1R,2S)-N-(4-(3,5-dichlorophenyl)-5-(6-methoxy-2-pyridinyl)-4H-1,2,4-triazol-3-yl)-1-methoxy-1-(5-methyl-2-pyrimidinyl)-2-propanesulfonamide]	60
COc1cccc(-c2nnc(NS(=O)(=O)[C@@H](C)[C@H](OC)c3ncc(C)cn3)n2-c2ccc(F)c(F)c2)n1 [Example 71.0, (1R,2S)-N-(4-(3,4-difluorophenyl)-5-(6-methoxy-2-pyridinyl)-4H-1,2,4-triazol-3-yl)-1-methoxy-1-(5-methyl-2-pyrimidinyl)-2-propanesulfonamide]	210
COc1cccc(-c2nnc(NS(=O)(=O)[C@@H](C)[C@H](OC)c3ncc(C)cn3)n2-c2cccc(C(C)=O)c2)n1 [Example 72.0, (1R,2S)-N-(4-(3-acetylphenyl)-5-(6-methoxy-2-pyridinyl)-4H-1,2,4-triazol-3-yl)-1-methoxy-1-(5-methyl-2-pyrimidinyl)-2-propanesulfonamide]	9.1
COc1cccc(-c2nnc(NS(=O)(=O)[C@@H](C)[C@H](OC)c3ncc(C)cn3)n2-c2c(Cl)cccc2Cl)n1 [Example 73.0, (1R,2S)-N-(4-(2,6-dichlorophenyl)-5-(6-methoxy-2-pyridinyl)-4H-1,2,4-triazol-3-yl)-1-methoxy-1-(5-methyl-2-pyrimidinyl)-2-propanesulfonamide]	0.76
COc1cccc(-c2nnc(NS(=O)(=O)[C@@H](C)[C@H](OC)c3ncc(C)cn3)n2-c2cccc(C(F)(F)F)c2)n1 [Example 75.0, (1R,2S)-1-methoxy-N-(5-(6-methoxy-2-pyridinyl)-4-(3-(trifluoromethyl)phenyl)-4H-1,2,4-triazol-3-yl)-1-(5-methyl-2-pyrimidinyl)-2-propanesulfonamide]	12
COc1cccc(-c2nnc(NS(=O)(=O)[C@@H](C)[C@H](OC)c3ncc(C)cn3)n2-c2ccc(N(C)C)cc2)n1 [Example 77.0, (1R,2S)-N-(4-(4-(dimethylamino)phenyl)-5-(6-methoxy-2-pyridinyl)-4H-1,2,4-triazol-3-yl)-1-methoxy-1-(5-methyl-2-pyrimidinyl)-2-propanesulfonamide]	7
COc1cccc(-c2nnc(NS(=O)(=O)[C@@H](C)[C@H](C)c3ncc(F)cn3)n2-c2ccccc2)n1 [Example 78.0, (2S,3R)-3-(5-fluoro-2-pyrimidinyl)-N-(5-(6-methoxy-2-pyridinyl)-4-phenyl-4H-1,2,4-triazol-3-yl)-2-butanesulfonamide]	9.4
CCO[C@H](c1ncc(F)cn1)[C@H](C)S(=O)(=O)Nc1nnc(-c2cncc(C)c2)n1-c1c(OC)cccc1OC [Example 79.0, (1R,2S)-N-(4-(2,6-dimethoxyphenyl)-5-(5-methyl-3-pyridinyl)-4H-1,2,4-triazol-3-yl)-1-ethoxy-1-(5-fluoro-2-pyrimidinyl)-2-propanesulfonamide]	0.41
COc1cccc(OC)c1-n1c(NS(=O)(=O)[C@@H](C)[C@H](O)c2ncc(F)cn2)nnc1-c1cccnc1 [Example 82.0, (1R,2S)-N-(4-(2,6-dimethoxyphenyl)-5-(3-pyridinyl)-4H-1,2,4-triazol-3-yl)-1-(5-fluoro-2-pyrimidinyl)-1-hydroxy-2-propanesulfonamide]	2.8
COc1cc(-c2nnc(NS(=O)(=O)[C@@H](C)[C@H](C)c3ncc(C)cn3)n2-c2c(OC)cccc2OC)ccn1 [Example 84.0, (2S,3R)-N-(4-(2,6-dimethoxyphenyl)-5-(2-methoxypyridin-4-yl)-4H-1,2,4-triazol-3-yl)-3-(5-methylpyrimidin-2-yl)butane-2-sulfonamide]	5.2
COc1cccc(OC)c1-n1c(NS(=O)(=O)[C@@H](C)[C@H](C)c2ncc(C)cn2)nnc1-c1ccnc(C)c1 [Example 85.0, (2S,3R)-N-(4-(2,6-dimethoxyphenyl)-5-(2-methylpyridin-4-yl)-4H-1,2,4-triazol-3-yl)-3-(5-methylpyrimidin-2-yl)butane-2-sulfonamide]	5.2
COc1cncc(-c2nnc(NS(=O)(=O)[C@@H](C)[C@H](C)c3ncc(C)cn3)n2-c2c(OC)cccc2OC)c1 [Example 86.0, (2S,3R)-N-(4-(2,6-dimethoxyphenyl)-5-(5-methoxypyridin-3-yl)-4H-1,2,4-triazol-3-yl)-3-(5-methylpyrimidin-2-yl)butane-2-sulfonamide]	1.3
COc1cccc(OC)c1-n1c(NS(=O)(=O)[C@@H](C)[C@H](C)c2ncc(C)cn2)nnc1-c1cccc(C)n1 [Example 87.0, (2S,3R)-N-(4-(2,6-dimethoxyphenyl)-5-(6-methylpyridin-2-yl)-4H-1,2,4-triazol-3-yl)-3-(5-methylpyrimidin-2-yl)butane-2-sulfonamide]	0.4
